Columns and labels:
Plasmodium falciparum [1] = assay: Antimalarial activity against Plasmodium falciparum 3D7; format: functional, organism-based
Plasmodium falciparum [2] = assay: Antimalarial activity against Plasmodium falciparum K1; format: functional, organism-based

SMILES | IC50 (Plasmodium falciparum [1]) [nM] | IC50 (Plasmodium falciparum [2]) [nM]
CC(C)(C)NCc1cc(Nc2ccnc3cc(Cl)ccc23)cc(-c2ccc(Cl)cc2)c1F [FLOUROTEBUQUINE] | 58 | 74
CC(C)(C)NCc1cc(Nc2ccnc3cc(Cl)ccc23)cc(-c2ccc(Cl)cc2)c1O [TEBUQUINE] | 18 | 21
